From article PMC4860631, “Pharmacokinetics and tolerability of NSC23925b, a novel P-glycoprotein inhibitor: preclinical study in mice and rats” (Scientific Reports, 2016)
Like-named read-outs stand apart in the source and are kept apart here.

Columns and labels:
[1] = in vivo; conditions: male, Sprague-Dawley, rat; for AUC(0-inf): AUC0-inf; for AUC(0-t): AUC0-t; for k el: Kel; for half-life: t1/2
[2] = target: T1, CYP2B6 (Homo sapiens, UniProt P20813); experiment: HLM-LC-MS CYP450 inhibition assay, CYP2B6; assay type: in vitro ADME
T1 construct: from tissue; host or cells: human liver microsomes
T1 sequence (P20813 1-491): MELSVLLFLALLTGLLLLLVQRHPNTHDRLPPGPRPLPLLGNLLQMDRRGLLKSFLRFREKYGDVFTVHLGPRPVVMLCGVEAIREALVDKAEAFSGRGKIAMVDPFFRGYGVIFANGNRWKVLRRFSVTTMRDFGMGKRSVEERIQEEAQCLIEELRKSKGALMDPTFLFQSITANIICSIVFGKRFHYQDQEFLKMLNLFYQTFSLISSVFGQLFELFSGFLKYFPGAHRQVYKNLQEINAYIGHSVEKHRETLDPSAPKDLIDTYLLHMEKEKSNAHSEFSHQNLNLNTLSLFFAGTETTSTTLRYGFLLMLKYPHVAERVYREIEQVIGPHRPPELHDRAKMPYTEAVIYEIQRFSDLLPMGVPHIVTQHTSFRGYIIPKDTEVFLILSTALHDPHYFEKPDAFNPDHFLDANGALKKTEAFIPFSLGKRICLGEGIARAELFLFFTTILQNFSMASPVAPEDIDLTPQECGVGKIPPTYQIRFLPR
Experimental: Compounds were tested in triplicate.

[3] = in vivo; conditions: mouse, in vivo; for AUC(0-inf): AUC0-inf; for AUC(0-t): AUC0-t; for k el: Kel; for half-life: t1/2
Experimental: After dosing, blood samples were collected at different time points for each group. […] Three animals were used for each time point. Approximately 800 μL of blood was collected via orbital vein (a source of collecting sufficient volume of venous blood) from each anesthetized mouse by isoflurane, and 200 μL of blood was collected from the cannula implanted in the jugular vein. The catheter was implanted when the blood sample was collected at the first time point. Next, the blood was transferred to a prepared tube containing sodium heparin anticoagulant and mixed briefly by gentle inversion three to four times. The target and actual time of blood sampling were recorded relative to the time of dosing. Samples were placed on wet ice immediately after collection. Within 1 hour after collection, plasma was separated by centrifugation at 4,000 rpm for 10 minutes at 4 °C. The plasma was protected from light and stored at −80 °C until analyzed by liquid chromatography-mass spectrometry/mass spectrometry (LC-MS/MS) for quantification.
Using the data from the standards, calibration curves were generated for each analytical batch. Aliquots of 10.0 μL of samples, calibraton curve samples, and QC samples were supplemented with 100 μL of precipitant (a mixture of acetone and acetonitrile (30:70)). After vortexing for 3 min and centrifuging at 12,000 rpm for 3 min, 75.00 μL of the supernatant was transferred into a 96-well microplate with an equal volume of water. The 10 μL mixture solution was injected for LC-MS/MS analysis.
Data collection was performed using Analyst version 1.4 from Applied Biosystems. […] The data were also analyzed using Prism 5.0 software. Statistical significance was determined using independent two-tailed Student t-tests and one-way ANOVA for independent data. Differences of P < 0.05 were regarded as significant for all statistical analyses.

[4] = Determination of maximum tolerated dose (MTD) in rats; assay type: in vivo; conditions: Sprague-Dawley, in vivo, read-out: tolerated dosage (MTD study)
Experimental: (§1) The MTD determination assay was composed of sighting study and main study. For the sighting study of the determination maximum tolerable dose (MTD) of NSC23925b, one of each animal (one female rat, one male rat, one female mouse, and one male mouse) was used at each I.V. and I.P. injection dose level. The starting dose was selected from the fixed dose levels (5, 50, 500, 2000 mg/kg) as a dose expected to produce evident toxicity. The first animal was dosed and observed. Time of appearance, degree, and lasting/recovery time of signs were recorded in details. Afterwards, animals were observed twice on the dosing day and then changed to daily observation. The observation lasted at least 14 days. If the first animal died or appeared impaired, the second animal received a middle dose of the two doses and vice versa. The sighting study was completed when a decision on the starting dose for the main study was made.
(§2) During the main study, a total of five animals of one sex were used for each dose level investigated. The five animals were made up of one animal from the sighting study dosed at the selected dose level together with an additional four animals. Each group received one of the fixed doses by I.V. and I.P. based on the sighting study. If the first animal died or appeared impaired, the second animal received a middle dose of the two doses and vice versa.
(§3) Animals were fasted overnight prior to dosing. Following the period of fasting, the animals were weighed and the dose was calculated according to the body weight. After the animals were administrated a dose volume of 10 mL/kg, food was withheld for another 3–4 hours. Individual weights of animals were determined shortly before the test substance was administered and twice weekly thereafter. Weight changes were calculated and recorded. Animals injected with saline were the control group for the weight alteration.

[5] = tested on: SD rats; experiment: as above; assay type: in vivo; conditions: SD rats, 5 exposed
Experimental: as §1, §2, §3

`COc1ccc(-c2cc(C(O)C3CCCCN3)c3ccccc3n2)cc1` (centres unmarked) [NSC23925b, (2-(4-methoxyphenyl)-4-quinolinyl)(2-piperidinyl)methanol] gave a Cmax ([1]; ip, 5 mg/kg) of 128 ± 44.3 ng/mL, an AUC(0-inf) ([1]; ip, 5 mg/kg) of 1990 ± 855 ng·h/mL and an AUC(0-t) ([1]; ip, 5 mg/kg) of 1390 ± 173 ng·h/mL. The k el ([1]; ip, 5 mg/kg) was 2.29e-05 s⁻¹, the half-life ([1]; ip, 5 mg/kg) was 9.24 ± 3.77 h and the Tmax ([1]; ip, 5 mg/kg, tmax) was about 2.17 h. It also gave an AUC(0-inf) ([1]; iv, 2.5 mg/kg) of 902 ± 57.4 ng·h/mL, an AUC(0-t) ([1]; iv, 2.5 mg/kg) of 766 ± 51.9 ng·h/mL and a clearance ([1]; iv, 2.5 mg/kg, CL) of 46.3 ± 3.06 mL/min/kg. For the same compound, the k el ([1]; iv, 2.5 mg/kg) was 2.18e-05 s⁻¹, the Vd ([1]; iv, 2.5 mg/kg, VdSS) was 32.4 ± 3.06 L/kg and the half-life ([1]; iv, 2.5 mg/kg) was 8.86 ± 0.541 h. For the same compound, the CYP inhibitor class ([2]; bupropion) was “moderate (1–10 μM)”, the IC50 ([2]; substrate bupropion 70 μM, hydroxylation, read-out: Compound IC50) was 8.59 µM and the “volumes of distribution at a steady state” value ([3]; male, BALB/c (mice), Sprague-Dawley (rats)) was over 9 L/kg. The “time of highest concentrations in plasma after I.P. injection” value ([3]; male, BALB/c (mice), Sprague-Dawley (rats), ip, 5 mg/kg) was 1 to 2 h, the “time of highest concentrations in plasma after I.V. injection” value ([3]; male, BALB/c (mice), Sprague-Dawley (rats), iv, 2.5 mg/kg) was 5 min and the “time point of peak plasma NSC23925b concentrations for both I.V. and I.P.” value ([3]; male, BALB/c) was 15 min. It also gave an AUMC0-inf ([3]; male, BALB/c, ip, 5 mg/kg) of 50744 ± 36083 h·h·ng·mL^−1, an AUMC0-t ([3]; male, BALB/c, ip, 5 mg/kg) of 25329 ± 4810 h·h·ng·mL^−1 and a Cmax ([3]; male, BALB/c, ip, 5 mg/kg) of 298 ± 56.1 ng/mL. For the same compound, the F ([3]; male, BALB/c, ip, 5 mg/kg) was 117.1 ± 24.06%, the AUC(0-inf) ([3]; male, BALB/c, ip, 5 mg/kg) was 3980 ± 819 ng·h/mL and the AUC(0-t) ([3]; male, BALB/c, ip, 5 mg/kg) was 3360 ± 197 ng·h/mL. For the same compound, the k el ([3]; male, BALB/c, ip, 5 mg/kg) was 2.56e-05 s⁻¹, the half-life ([3]; male, BALB/c, ip, 5 mg/kg) was 8.69 ± 4.18 h and the Tmax ([3]; male, BALB/c, ip, 5 mg/kg, tmax) was about 1.5 h. For the same compound, the AUMC0-inf ([3]; male, BALB/c, iv, 2.5 mg/kg) was 11945 ± 2141 h·h·ng·mL^−1, the AUMC0-t ([3]; male, BALB/c, iv, 2.5 mg/kg) was 9893 ± 1299 h·h·ng·mL^−1 and the MRTIV ([3]; male, BALB/c, iv, 2.5 mg/kg) was 6.99 ± 0.836 h. The AUC(0-inf) ([3]; male, BALB/c, iv, 2.5 mg/kg) was 1700 ± 130 ng·h/mL, the AUC(0-t) ([3]; male, BALB/c, iv, 2.5 mg/kg) was 1640 ± 114 ng·h/mL and the clearance ([3]; male, BALB/c, iv, 2.5 mg/kg, CL) was 24.6 ± 1.96 mL/min/kg. The k el ([3]; male, BALB/c, iv, 2.5 mg/kg) was 3.89e-05 s⁻¹, the Vd ([3]; male, BALB/c, iv, 2.5 mg/kg, VdSS) was 10.3 ± 0.808 L/kg and the half-life ([3]; male, BALB/c, iv, 2.5 mg/kg) was 5.01 ± 0.661 h. For the same compound, the “treatment-related clinical signs during the pharmacokinetic study” value [3] was “no treatment-related clinical signs were observed”, the MTD ([4]; iv, female rats, I.V., one female rat moribund) was 47.2 mg/kg and the MTD ([4]; rat, ip, male rats, I.P., all in good status) was 33.1 mg/kg. The MTD ([4]; rat, iv, male rats, I.V.) was 38.8 mg/kg, the “Number of Death” value ([5]; I.P., 33.10 mg/kg, male) was 0 and the “Number of Death” value ([5]; I.P., 47.20 mg/kg, female) was 1. For the same compound, the “Number of Death” value ([5]; I.V., 38.80 mg/kg, male) was 0 and the “Number of Death” value ([5]; I.V., 47.20 mg/kg, female) was 1.
